From patent US20250270172A1, “Pyrimidine Derivatives As Modulators of the 5-HT2A Serotonin Receptor Useful For The Treatment of Disorders Related Thereto” (Arena Pharmaceuticals, Inc., priority 2020, published 2025)
Several values for one entry are separate records, joined by “and”; a condition that tells them apart may be missing. Equal entries are not always repeated.

Tests used:
5-HT2B = 5-HT2B (Homo sapiens (Human), UniProt P41595); assay: HTRF IP-One antagonist assay, 5-HT2B; format: cell-based; settings: HEK293 cells stably expressing receptor, inositol phosphate accumulation, 80 nM 5-HT in Assay Buffer;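 also: clonal HEK293 line with low 5-HT2B expression (estimated 150-200 fmol/mg by radioligand binding), IP-One HTRF readout, 10-point curves from 10 µM in 5-fold steps, triplicate points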
5-HT2A [1] = target: T1, 5-HT2A (Homo sapiens (Human), UniProt P28223); assay: HTRF IP-One antagonist assay, 5-HT2A; format: cell-based; settings: HEK293 cells stably expressing receptor, inositol phosphate accumulation, 80 nM 5-HT in Assay Buffer;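 also: clonal line with low receptor density (about 50–70 fmol/mg), 10-point dose-response from 10 µM in 5-fold steps, HTRF detection after 1 hr, triplicate points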
5-HT2A [2] = target: T1, 5-HT2A; assay: Radioligand binding assay, [^3H]5-HT competition, 5-HT2A; settings: [^3H]5-HT radioligand, membranes of HEK293 cells expressing recombinant 5-HT2A; Ki from IC50 by Cheng-Prusoff; read-out: 5-HT2A serotonin binding Ki value
5-HT2C = 5-HT2C (Homo sapiens (Human), UniProt P28335); assay: HTRF IP-One antagonist assay, 5-HT2C; format: cell-based; settings: HEK293 cells stably expressing receptor, inositol phosphate accumulation, 80 nM 5-HT in Assay Buffer;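 also: clonal HEK293 line with low 5-HT2C density (10–20 fmol/mg), HTRF detection of IP-One, 10-point dose curves from 10 µM in 5-fold steps, triplicate points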
Chain of 5-HT2C (P28335 33-458): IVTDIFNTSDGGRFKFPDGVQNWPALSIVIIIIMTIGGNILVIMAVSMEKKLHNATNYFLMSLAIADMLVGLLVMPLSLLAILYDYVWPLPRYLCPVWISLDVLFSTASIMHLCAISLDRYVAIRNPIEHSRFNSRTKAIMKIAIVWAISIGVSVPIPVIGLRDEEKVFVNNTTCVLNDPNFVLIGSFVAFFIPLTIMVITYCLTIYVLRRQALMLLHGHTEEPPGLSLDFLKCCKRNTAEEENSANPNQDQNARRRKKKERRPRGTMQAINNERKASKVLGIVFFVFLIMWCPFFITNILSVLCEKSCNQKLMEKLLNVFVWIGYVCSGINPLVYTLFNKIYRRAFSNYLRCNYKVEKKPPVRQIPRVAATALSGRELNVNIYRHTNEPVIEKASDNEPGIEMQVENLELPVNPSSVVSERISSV

Chain of 5-HT2B (P41595 whole entry): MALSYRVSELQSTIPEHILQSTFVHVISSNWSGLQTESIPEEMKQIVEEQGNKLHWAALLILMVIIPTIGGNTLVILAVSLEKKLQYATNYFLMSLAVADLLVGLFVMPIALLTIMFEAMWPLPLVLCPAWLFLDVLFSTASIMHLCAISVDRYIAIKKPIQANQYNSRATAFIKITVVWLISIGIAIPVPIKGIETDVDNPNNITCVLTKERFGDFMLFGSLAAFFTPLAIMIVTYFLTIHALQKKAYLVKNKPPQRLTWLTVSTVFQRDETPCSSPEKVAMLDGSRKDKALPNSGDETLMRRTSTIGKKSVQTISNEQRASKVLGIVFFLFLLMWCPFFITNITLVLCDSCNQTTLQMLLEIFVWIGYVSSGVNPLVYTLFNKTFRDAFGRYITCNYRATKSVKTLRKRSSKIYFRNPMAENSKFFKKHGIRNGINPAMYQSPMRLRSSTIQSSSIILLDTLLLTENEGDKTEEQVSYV
T1 sequence (P28223 whole entry): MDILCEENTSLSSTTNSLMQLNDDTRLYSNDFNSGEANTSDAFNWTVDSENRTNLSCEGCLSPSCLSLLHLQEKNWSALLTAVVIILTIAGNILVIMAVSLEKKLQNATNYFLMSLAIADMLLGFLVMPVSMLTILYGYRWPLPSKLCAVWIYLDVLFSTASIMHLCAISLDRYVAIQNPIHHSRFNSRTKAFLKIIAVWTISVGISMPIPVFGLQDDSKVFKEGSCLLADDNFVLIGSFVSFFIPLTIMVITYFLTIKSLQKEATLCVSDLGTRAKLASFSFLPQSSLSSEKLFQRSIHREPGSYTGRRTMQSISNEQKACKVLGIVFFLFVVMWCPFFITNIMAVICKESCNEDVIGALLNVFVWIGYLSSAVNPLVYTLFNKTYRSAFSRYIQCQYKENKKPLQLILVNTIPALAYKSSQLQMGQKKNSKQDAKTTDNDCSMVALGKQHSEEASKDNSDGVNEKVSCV

Compound: Cc1ncnc(C)c1-c1cc(NC(=O)c2cccn2C)ccc1OCCN1CCCC1 [Compound 200, N-(3-(4,6-dimethylpyrimidin-5-yl)-4-(2-(pyrrolidin-1-yl)ethoxy)phenyl)-1-methyl-1H-pyrrole-2-carboxamide]
- IC50 (5-HT2B): 100000 nM
- IC50 (5-HT2A [1]): 11.7 nM
- Ki (5-HT2A [2]): 3.72 nM
- IC50 (5-HT2C): 100000 nM

Compound: Cc1ncnc(C)c1-c1cc(NC(=O)c2ccnn2C)ccc1OCCN1CCCC1 [Compound 202, N-(3-(4,6-dimethylpyrimidin-5-yl)-4-(2-(pyrrolidin-1-yl)ethoxy)phenyl)-1-methyl-1H-pyrazole-5-carboxamide]
- IC50 (5-HT2B): 100000 nM
- IC50 (5-HT2A [1]): 6.35 nM
- Ki (5-HT2A [2]): 5.25 nM
- IC50 (5-HT2C): 100000 nM

Compound: Cc1ncnc(C)c1-c1cc(NC(=O)c2cc(F)ccn2)ccc1OCCN1CCCC1 [Compound 209, N-(3-(4,6-dimethylpyrimidin-5-yl)-4-(2-(pyrrolidin-1-yl)ethoxy)phenyl)-4-fluoropicolinamide]
- IC50 (5-HT2B): 100000 nM
- IC50 (5-HT2A [1]): 26.2 nM
- Ki (5-HT2A [2]): 4.8 nM
- IC50 (5-HT2C): 100000 nM

Compound: Cc1ncsc1C(=O)Nc1ccc(OCCN2CCCC2)c(-c2c(C)ncnc2C)c1 [Compound 214, N-(3-(4,6-dimethylpyrimidin-5-yl)-4-(2-(pyrrolidin-1-yl)ethoxy)phenyl)-4-methylthiazole-5-carboxamide]
- IC50 (5-HT2B): 100000 nM
- IC50 (5-HT2A [1]): 5.16 nM
- Ki (5-HT2A [2]): 3.25 nM
- IC50 (5-HT2C): 100000 nM

Compound: Cc1ncoc1C(=O)Nc1ccc(OCCN2CCCC2)c(-c2c(C)ncnc2C)c1 [Compound 217, N-(3-(4,6-dimethylpyrimidin-5-yl)-4-(2-(pyrrolidin-1-yl)ethoxy)phenyl)-4-methyloxazole-5-carboxamide]
- IC50 (5-HT2B): 100000 nM
- IC50 (5-HT2A [1]): 18.5 nM
- Ki (5-HT2A [2]): 7.23 nM
- IC50 (5-HT2C): 100000 nM

Compound: Cc1ncnc(C)c1-c1cc(NC(=O)C2C3COCC32)ccc1OCCN1CCCC1 (stereo not shown) [Compound 232, N-(3-(4,6-dimethylpyrimidin-5-yl)-4-(2-(pyrrolidin-1-yl)ethoxy)phenyl)-3-oxabicyclo[3.1.0]hexane-6-carboxamide]
- IC50 (5-HT2B): 100000 nM
- IC50 (5-HT2A [1]): 140 nM
- Ki (5-HT2A [2]): 24.5 nM
- IC50 (5-HT2C): 100000 nM

Compound: Cc1ncnc(C)c1-c1cc(NC(=O)C2(F)CC2)ccc1OCCN1CCCC1 [Compound 233]
- IC50 (5-HT2B): 100000 nM
- IC50 (5-HT2A [1]): 8.55 nM
- Ki (5-HT2A [2]): 3.81 nM and 4.66 nM
- IC50 (5-HT2C): 100000 nM

Compound: Cc1ncnc(C)c1-c1cc(NC(=O)Cn2cccc2)ccc1OCCN1CCCC1 [Compound 243, N-[3-(4,6-dimethylpyrimidin-5-yl)-4-(2-pyrrolidin-1-ylethoxy)phenyl]-2-pyrrol-1-yl-acetamide]
- IC50 (5-HT2B): 100000 nM
- IC50 (5-HT2A [1]): 14.8 nM
- Ki (5-HT2A [2]): 8.59 nM
- IC50 (5-HT2C): 100000 nM

Compound: COC1(C(=O)Nc2ccc(OCCN3CCCC3)c(-c3c(C)ncnc3C)c2)CC1 [Compound 244, N-[3-(4,6-dimethylpyrimidin-5-yl)-4-(2-pyrrolidin-1-ylethoxy)phenyl]-1-methoxy-cyclopropanecarboxamide]
- IC50 (5-HT2B): 100000 nM
- IC50 (5-HT2A [1]): 13.5 nM
- Ki (5-HT2A [2]): 6.51 nM
- IC50 (5-HT2C): 100000 nM

Compound: Cc1ncnc(C)c1-c1cc(NC(=O)C2CC2)ccc1OCCN1CCCC1 [Compound 245, N-[3-(4,6-dimethylpyrimidin-5-yl)-4-(2-pyrrolidin-1-ylethoxy)phenyl]cyclopropanecarboxamide]
- IC50 (5-HT2B): 100000 nM
- IC50 (5-HT2A [1]): 9.66 nM
- Ki (5-HT2A [2]): 4.3 nM
- IC50 (5-HT2C): 100000 nM

Compound: Cc1ncnc(C)c1-c1cc(NC(=O)Cc2cncs2)ccc1OCCN1CCCC1 [Compound 247, N-[3-(4,6-dimethylpyrimidin-5-yl)-4-(2-pyrrolidin-1-ylethoxy)phenyl]-2-thiazol-5-yl-acetamide]
- IC50 (5-HT2B): 100000 nM
- IC50 (5-HT2A [1]): 10.6 nM
- Ki (5-HT2A [2]): 4.47 nM
- IC50 (5-HT2C): 100000 nM

Compound: COc1cccc(C(=O)Nc2ccc(OCCN3CCCC3)c(-c3c(C)ncnc3C)c2)c1 [Compound 273, N-(3-(4,6-dimethylpyrimidin-5-yl)-4-(2-(pyrrolidin-1-yl)ethoxy)phenyl)-3-methoxybenzamide]
- IC50 (5-HT2A [1]): 1.68 nM
- Ki (5-HT2A [2]): 1.11 nM
- IC50 (5-HT2C): 100000 nM

Compound: Cc1ncsc1C(=O)Nc1ccc(OCCN2CCC2)c(-c2c(C)ncnc2C)c1 [Compound 306, N-(4-(2-(azetidin-1-yl)ethoxy)-3-(4,6-dimethylpyrimidin-5-yl)phenyl)-4-methylthiazole-5-carboxamide]
- IC50 (5-HT2A [1]): 6.14 nM
- Ki (5-HT2A [2]): 2.65 nM
- IC50 (5-HT2C): 100000 nM

Compound: Cc1ncnc(C)c1-c1cc(NC(=O)Cc2cccc(F)c2)ccc1OCCN1CCC1 [Compound 312, N-(4-(2-(azetidin-1-yl)ethoxy)-3-(4,6-dimethylpyrimidin-5-yl)phenyl)-2-(3-fluorophenyl)acetamide]
- IC50 (5-HT2A [1]): 2.38 nM
- Ki (5-HT2A [2]): 0.813 nM
- IC50 (5-HT2C): 100000 nM

Compound: Cc1ccccc1C(=O)Nc1ccc(OCCN2CCC2)c(-c2c(C)ncnc2C)c1 [Compound 321, N-(4-(2-(azetidin-1-yl)ethoxy)-3-(4,6-dimethylpyrimidin-5-yl)phenyl)-2-methylbenzamide]
- IC50 (5-HT2B): 5400 nM
- IC50 (5-HT2A [1]): 25.7 nM
- IC50 (5-HT2C): 100000 nM

Compound: Cc1ncnc(C)c1-c1cc(NC(=O)c2ncoc2C)ccc1OC[C@H]1CCCCN1 [Compound 432, (R)—N-(3-(4,6-dimethylpyrimidin-5-yl)-4-(piperidin-2-ylmethoxy)phenyl)-5-methyloxazole-4-carboxamide]
- Ki (5-HT2A [2]): 19.1 nM

Compound: Cc1ncnc(C)c1-c1cc(NC(=O)c2cnsc2)ccc1OC[C@H]1CCCCN1 [Compound 433, (R)—N-(3-(4,6-dimethylpyrimidin-5-yl)-4-(piperidin-2-ylmethoxy)phenyl) isothiazole-4-carboxamide]
- Ki (5-HT2A [2]): 9.98 nM

Compound: Cc1nscc1C(=O)Nc1ccc(OC[C@H]2CCCCN2)c(-c2c(C)ncnc2C)c1 [Compound 434, (R)—N-(3-(4,6-dimethylpyrimidin-5-yl)-4-(piperidin-2-ylmethoxy)phenyl)-3-methylisothiazole-4-carboxamide]
- Ki (5-HT2A [2]): 19.3 nM

Compound: Cc1ncnc(C)c1-c1cc(NC(=O)c2ncsc2C)ccc1OC[C@H]1CCCCN1 [Compound 435, (R)—N-(3-(4,6-dimethylpyrimidin-5-yl)-4-(piperidin-2-ylmethoxy)phenyl)-5-methylthiazole-4-carboxamide]
- IC50 (5-HT2A [1]): 43.2 nM
- Ki (5-HT2A [2]): 10.7 nM
- IC50 (5-HT2C): 100000 nM

Compound: Cc1ncnc(C)c1-c1cc(NC(=O)c2cccn2C)ccc1OC[C@H]1CCCCN1 [Compound 436, (R)—N-(3-(4,6-dimethylpyrimidin-5-yl)-4-(piperidin-2-ylmethoxy)phenyl)-1-methyl-1H-pyrrole-2-carboxamide]
- IC50 (5-HT2A [1]): 27.2 nM
- Ki (5-HT2A [2]): 6.05 nM
- IC50 (5-HT2C): 100000 nM

Compound: Cc1ncnc(C)c1-c1cc(NC(=O)c2ccnn2C)ccc1OC[C@H]1CCCCN1 [Compound 437, N-[3-(4,6-dimethylpyrimidin-5-yl)-4-[[(2R)-2-piperidyl]methoxy]phenyl]-2-methyl-pyrazole-3-carboxamide]
- Ki (5-HT2A [2]): 10.7 nM

Compound: COC1(C(=O)Nc2ccc(OC[C@H]3CCCCN3)c(-c3c(C)ncnc3C)c2)CC1 [Compound 439, (R)—N-(3-(4,6-dimethylpyrimidin-5-yl)-4-(piperidin-2-ylmethoxy)phenyl)-1-methoxycyclopropane-1-carboxamide]
- Ki (5-HT2A [2]): 14.6 nM

Compound: Cc1ncnc(C)c1-c1cc(NC(=O)C2(O)CC2)ccc1OC[C@H]1CCCCN1 [Compound 440, (R)—N-(3-(4,6-dimethylpyrimidin-5-yl)-4-(piperidin-2-ylmethoxy)phenyl)-1-hydroxycyclopropane-1-carboxamide]
- Ki (5-HT2A [2]): 65.1 nM

Compound: CCC[C@@H](F)C(=O)Nc1ccc(OC[C@H]2CCCCN2)c(-c2c(C)ncnc2C)c1 [Compound 441, (R)—N-[3-(4,6-dimethylpyrimidin-5-yl)-4-[[(2R)-2-piperidyl]methoxy]phenyl]-2-fluoro-pentanamide]
- IC50 (5-HT2A [1]): 12.1 nM
- Ki (5-HT2A [2]): 5.67 nM
- IC50 (5-HT2C): 100000 nM

Compound: Cc1ncnc(C)c1-c1cc(NC(=O)[C@H](F)C(C)C)ccc1OC[C@H]1CCCCN1 [Compound 442, (R)—N-(3-(4,6-dimethylpyrimidin-5-yl)-4-(((R)-piperidin-2-yl)methoxy)phenyl)-2-fluoro-3-methylbutanamide]
- Ki (5-HT2A [2]): 17.1 nM

Compound: Cc1ncnc(C)c1-c1cc(NC(=O)[C@@H](F)C(C)C)ccc1OC[C@H]1CCCCN1 [Compound 443, (S)—N-(3-(4,6-dimethylpyrimidin-5-yl)-4-(((R)-piperidin-2-yl)methoxy)phenyl)-2-fluoro-3-methylbutanamide]
- Ki (5-HT2A [2]): 18.8 nM

Compound: Cc1ncnc(C)c1-c1cc(NC(=O)C2(F)CCOCC2)ccc1OC[C@H]1CCCCN1 [Compound 445, (R)—N-(3-(4,6-dimethylpyrimidin-5-yl)-4-(piperidin-2-ylmethoxy)phenyl)-4-fluorotetrahydro-2H-pyran-4-carboxamide]
- Ki (5-HT2A [2]): 63.3 nM

Compound: Cc1ncnc(C)c1-c1cc(NC(=O)c2ccccc2)ccc1OC[C@H]1CCCCN1 [Compound 448, (R)—N-(3-(4,6-dimethylpyrimidin-5-yl)-4-(piperidin-2-ylmethoxy)phenyl)benzamide]
- Ki (5-HT2A [2]): 1.7 nM

Compound: Cc1ncnc(C)c1-c1cc(NC(=O)c2cccc(F)c2)ccc1OC[C@H]1CCCCN1 [Compound 449, (R)—N-(3-(4,6-dimethylpyrimidin-5-yl)-4-(piperidin-2-ylmethoxy)phenyl)-3-fluorobenzamide]
- Ki (5-HT2A [2]): 6.49 nM

Compound: COc1cccc(C(=O)Nc2ccc(OC[C@H]3CCCCN3)c(-c3c(C)ncnc3C)c2)c1 [Compound 450, (R)—N-(3-(4,6-dimethylpyrimidin-5-yl)-4-(piperidin-2-ylmethoxy)phenyl)-3-methoxybenzamide]
- Ki (5-HT2A [2]): 1.03 nM

Compound: CC(=N)NCCOc1ccc(NC(=O)C2CC2)cc1-c1c(C)ncnc1C [Compound 451, N-(4-(2-acetimidamidoethoxy)-3-(4,6-dimethylpyrimidin-5-yl)phenyl)cyclopropanecarboxamide]
- Ki (5-HT2A [2]): 52.6 nM

Compound: Cc1ncnc(C)c1-c1cc(NC(=O)C2(F)CC2)ccc1O[C@@H]1CCCNC1 [Compound 452, (R)—N-(3-(4,6-dimethylpyrimidin-5-yl)-4-(piperidin-3-yloxy)phenyl)-1-fluorocyclopropane-1-carboxamide]
- Ki (5-HT2A [2]): 15 nM
